Measurements as given in ChEMBL document CHEMBL3785036 (J Pharm Sci, 1974).

Tests used:
Format in all cases: ADME, organism-based
[1] = Drug excretion in human subject slow inactivator assessed as sum of isoniazid plus hydrazones, acetylisoniazid, isonicotinic acid and isonicotinuric acid level in urine at 681 mg, iv infused at constant rate 5.4 min measured 677 mins after start of drug injection by colorimetry; settings: in vivo
[2] = Drug excretion in human subject slow inactivator assessed as sum of isoniazid plus hydrazones, acetylisoniazid, isonicotinic acid and isonicotinuric acid level in urine at 681 mg, iv infused at constant rate 5.4 min measured 59.1 mins after start of drug injection by colorimetry; settings: in vivo, 0.985 h
[3] = Drug excretion in human subject slow inactivator assessed as sum of isoniazid plus hydrazones, acetylisoniazid, isonicotinic acid and isonicotinuric acid level in urine at 681 mg, iv infused at constant rate 5.4 min measured 496 mins after start of drug injection by colorimetry; settings: in vivo
[4] = Drug excretion in human slow inactivators urine assessed as total isonicotinoyl compounds at 1 g, iv by colorimetry; settings: in vivo
[5] = Drug excretion in human subject rapid inactivator assessed as total isonicotinoyl compound level in urine at 670 mg, iv infused at constant rate 5.2min measured 62 mins after start of drug injection by colorimetry; settings: in vivo
[6] = Drug excretion in human subject slow inactivator assessed as sum of isoniazid plus hydrazones, acetylisoniazid, isonicotinic acid and isonicotinuric acid level in urine at 681 mg, iv infused at constant rate 5.4 min measured 150 mins after start of drug injection by colorimetry; settings: in vivo, 2.5 h
[7] = Drug excretion in human subject rapid inactivator assessed as total isonicotinoyl compound level in urine at 670 mg, iv infused at constant rate 5.2min measured 126 mins after start of drug injection by colorimetry; settings: in vivo, 2.1 h
[8] = Drug metabolism in human rapid inactivators assessed as excretion of isonicotinic acid in urine at 1 g, iv by colorimetry; settings: in vivo
[9] = Drug excretion in human subject slow inactivator assessed as total isonicotinoyl compound level in urine at 681 mg, iv infused at constant rate 5.4 min measured 586 mins after start of drug injection by colorimetry; settings: in vivo
[10] = Drug excretion in human rapid inactivators urine assessed as total isonicotinoyl compounds at 1 g, iv by colorimetry; settings: in vivo
[11] = Drug excretion in human subject slow inactivator assessed as total isonicotinoyl compound level in urine at 681 mg, iv infused at constant rate 5.4 min measured 747 mins after start of drug injection by colorimetry; settings: in vivo, 12.45 h
[12] = Drug metabolism in human slow inactivators assessed as excretion of acetylisoniazid in urine at 1 g, iv by colorimetry; settings: in vivo
[13] = Drug excretion in human subject rapid inactivator assessed as total isonicotinoyl compound level in urine at 670 mg, iv infused at constant rate 5.2min measured 400 mins after start of drug injection by colorimetry; settings: in vivo
[14] = Drug excretion in human rapid inactivators urine at 1 g, iv by colorimetry; settings: in vivo
[15] = Drug excretion in human subject slow inactivator assessed as total isonicotinoyl compound level in urine at 681 mg, iv infused at constant rate 5.4 min measured 208.7 mins after start of drug injection by colorimetry; settings: in vivo, 3.47833 h
[16] = Drug excretion in human subject rapid inactivator assessed as total isonicotinoyl compound level in urine at 670 mg, iv infused at constant rate 5.2min measured 426 mins after start of drug injection by colorimetry; settings: in vivo, 7.1 h
[17] = Drug excretion in human subject slow inactivator assessed as total isonicotinoyl compound level in urine at 681 mg, iv infused at constant rate 5.4 min measured 276.3 mins after start of drug injection by colorimetry; settings: in vivo, 4.605 h
[18] = Drug metabolism in human slow inactivators assessed as excretion of 1,2-diacetylhydrazine in urine at 1 g, iv by colorimetry; settings: in vivo
[19] = Drug excretion in human subject slow inactivator assessed as total isonicotinoyl compound level in urine at 681 mg, iv infused at constant rate 5.4 min measured 430.2 mins after start of drug injection by colorimetry; settings: in vivo, 7.17 h
[20] = Drug excretion in human subject slow inactivator assessed as total isonicotinoyl compound level in urine at 681 mg, iv infused at constant rate 5.4 min measured 554 mins after start of drug injection by colorimetry; settings: in vivo
[21] = Drug excretion in human subject rapid inactivator assessed as total isonicotinoyl compound level in urine at 670 mg, iv infused at constant rate 5.2min measured 296 mins after start of drug injection by colorimetry; settings: in vivo
[22] = Drug excretion in human subject rapid inactivator assessed as total isonicotinoyl compound level in urine at 670 mg, iv infused at constant rate 5.2min measured 516 mins after start of drug injection by colorimetry; settings: in vivo
[23] = Drug excretion in human subject slow inactivator assessed as sum of isoniazid plus hydrazones, acetylisoniazid, isonicotinic acid and isonicotinuric acid level in urine at 681 mg, iv infused at constant rate 5.4 min measured 648 mins after start of drug injection by colorimetry; settings: in vivo
[24] = Drug excretion in human subject rapid inactivator assessed as sum of isoniazid plus hydrazones, acetylisoniazid, isonicotinic acid and isonicotinuric acid level in urine at 670 mg, iv infused at constant rate 5.2min measured 259 mins after start of drug injection by colorimetry; settings: in vivo
[25] = Drug excretion in human subject slow inactivator assessed as sum of isoniazid plus hydrazones, acetylisoniazid, isonicotinic acid and isonicotinuric acid level in urine at 681 mg, iv infused at constant rate 5.4 min measured 613 mins after start of drug injection by colorimetry; settings: in vivo
[26] = Drug metabolism in human rapid inactivators assessed as excretion of acetylisoniazid in urine at 1 g, iv by colorimetry; settings: in vivo
[27] = Drug excretion in human subject rapid inactivator assessed as sum of isoniazid plus hydrazones, acetylisoniazid, isonicotinic acid and isonicotinuric acid level in urine at 670 mg, iv infused at constant rate 5.2min measured 296 mins after start of drug injection by colorimetry; settings: in vivo
[28] = Drug excretion in human subject slow inactivator assessed as sum of isoniazid plus hydrazones, acetylisoniazid, isonicotinic acid and isonicotinuric acid level in urine at 681 mg, iv infused at constant rate 5.4 min measured 710 mins after start of drug injection by colorimetry; settings: in vivo
[29] = Drug excretion in human slow inactivators urine at 1 g, iv by colorimetry; settings: in vivo
[30] = Drug excretion in human subject rapid inactivator assessed as sum of isoniazid plus hydrazones, acetylisoniazid, isonicotinic acid and isonicotinuric acid level in urine at 670 mg, iv infused at constant rate 5.2min measured 426 mins after start of drug injection by colorimetry; settings: in vivo
[31] = Drug excretion in human subject slow inactivator assessed as sum of isoniazid plus hydrazones, acetylisoniazid, isonicotinic acid and isonicotinuric acid level in urine at 681 mg, iv infused at constant rate 5.4 min measured 243.5 mins after start of drug injection by colorimetry; settings: in vivo
[32] = Drug metabolism in human rapid inactivators assessed as excretion of alpha-ketoglutaric acid isonicotinoylhydrazone in urine at 1 g, iv by colorimetry; settings: in vivo
[33] = Drug excretion in human subject rapid inactivator assessed as total isonicotinoyl compound level in urine at 670 mg, iv infused at constant rate 5.2min measured 458 mins after start of drug injection by colorimetry; settings: in vivo

In the case of `NNC(=O)c1ccncc1` [ISONIAZID], the Drug excretion [1] is reported as 11.396 mg, the Drug excretion [2] is reported as 30.44 mg and the Drug excretion [3] is reported as 14.26 mg. It also gave a Drug excretion [4] of 98.8%, a Drug excretion [5] of 43.3 mg and a Drug excretion [6] of 38.71 mg. It also gave a Drug excretion [7] of 43.4 mg, a Drug metabolism [8] of 27.1 %molar and a Drug excretion [9] of 12.7 mg. The Drug excretion [10] was 98.8%, the Drug excretion [11] was 9.44 mg and the Drug metabolism [12] was 34.3 %molar. The Drug excretion [13] was 18.5 mg, the Drug excretion [14] was 3.6 %molar and the Drug excretion [15] was 27.1 mg. It also gave a Drug excretion [16] of 17.1 mg, a Drug excretion [17] of 33.2 mg and a Drug metabolism [18] of 32.3 %molar. For the same compound, the Drug excretion [19] was 20 mg, the Drug excretion [20] was 13.1 mg and the Drug excretion [21] was 42.1 mg. It also gave a Drug excretion [22] of 17 mg, a Drug excretion [23] of 12.82 mg and a Drug excretion [24] of 40.5 mg. For the same compound, the Drug excretion [25] was 11.202 mg, the Drug metabolism [26] was 43.8 %molar and the Drug excretion [27] was 39.4 mg. The Drug excretion [28] was 10.68 mg, the Drug excretion [29] was 12.7 %molar and the Drug excretion [30] was 16.5 mg. It also gave a Drug excretion [31] of 37.21 mg, a Drug metabolism [32] of 1.4 %molar and a Drug excretion [33] of 17.2 mg.
